{"source": "patent US20140227419A1", "about": "“ANTI-FUNGAL AGENT FOR PROCESSED CEREAL FOODS” (NAGASE & co., LTD., priority 2011, published 2014)", "tested_on": "mold", "assay": "Anti-fungal effect by spraying method (2): loaves with calcium propionate kneaded into the dough sprayed, mold growth checked visually", "details": "0.3% calcium propionate kneaded into bread dough; sprayed with nothing", "procedure": "Three hundred and thirty grams of bread dough (dough) of the raw materials blended in the ratio shown in Table 1 (Example 1) was mixed at a low speed for 5 minutes, and then, was mixed at a high speed for 7 minutes. The dough was retained at 35° C. for 100 minutes to be leavened, and then, was baked at 140° C. for 20 minutes to obtain a loaf of bread (hereinafter, referred to as a “loaf”).\nThe obtained loaf was left to room temperature, and the entire surface of the loaf (approximately 280 g) was sprayed with a spraying agent (approximately 10 μL/cm^2) shown in Table 2 (“0.1% chitinase” means a concentration when 1 mg of chitinase is added with respect to 1 ml of the spraying agent). The loaves were retained in the atmosphere to dry the surface, and then, the loaves were independently put into separate plastic bags and were preserved at a room temperature. The presence or the absence of the growth of mold was checked visually. […]\nThe anti-fungal effects of the spraying agents 1 to 3 were evaluated in the same manner as in Example 1, except that the raw materials were blended in the ratio shown in Table 1 (Example 2) instead of the ratio shown in Table 1 (Example 1). […]", "data": [{"smiles": "CCC(=O)[O-].CCC(=O)[O-].[Ca+2]", "note": "[calcium propionate]", "values": [{"measurement": "Length of preservation time of bread with calcium propionate kneaded into the dough, without spraying", "result": 11, "unit": "days"}]}]}
